Test results from patent US20060252807A1, “Novel ortho-terphenyl inhibitors of p38 kinase and methods of treating inflammatory disorders” (Kalypsys, Inc., priority 2005, published 2006).

biological target: T1, active p38 alpha enzyme (Upstate Biotechnology) (Homo sapiens, UniProt Q16539); test: p38α biochemical assay (ATP turnover, luminescent detection, Cambrex PKlight); conditions: p38α kinase; Table 1 Biological Activity
T1 construct: purchased Upstate Biotechnology
In short: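 Compounds in DMSO are added to active p38 alpha with MapkapK2 whole protein and ATP at 1.4 uM final. Reactions then run for 2 hours at 30C. A luminescent reagent is added last to quantify total ATP consumed.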

T1 sequence (Q16539 whole entry): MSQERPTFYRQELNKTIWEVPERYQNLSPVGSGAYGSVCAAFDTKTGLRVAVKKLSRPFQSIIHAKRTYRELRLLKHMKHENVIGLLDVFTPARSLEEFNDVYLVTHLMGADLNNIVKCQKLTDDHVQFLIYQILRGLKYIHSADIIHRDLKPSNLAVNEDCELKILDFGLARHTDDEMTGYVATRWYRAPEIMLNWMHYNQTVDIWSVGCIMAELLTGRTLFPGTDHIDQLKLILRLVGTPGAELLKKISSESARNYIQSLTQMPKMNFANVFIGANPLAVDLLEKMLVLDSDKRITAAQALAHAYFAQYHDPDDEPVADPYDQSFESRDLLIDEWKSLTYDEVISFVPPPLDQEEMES

IC50	Structure (SMILES)
> 1000 nM	Cc1nc(-c2ccc(F)cc2)c(-c2nc(C(=O)N3CCN(c4cc(Cl)ccc4C)CC3)cs2)s1 [Example 1935]
≤ 1000 nM	COc1cc(CN(C)C(=O)c2csc(-c3sc(C)nc3-c3ccc(F)cc3)n2)cc(OC)c1OC [Example 1936]
> 1000 nM	Cc1nc(-c2ccc(F)cc2)c(-c2nc(C(=O)N(CCc3ccccc3)Cc3ccccc3)cs2)s1 [Example 1937]
> 1000 nM	Cc1nc(-c2ccc(F)cc2)c(-c2nc(C(=O)N(C)C(Cc3ccccc3)c3ccccc3)cs2)s1 (stereo not shown) [Example 1939]
> 1000 nM	Cc1nc(-c2ccc(F)cc2)c(-c2nc(C(=O)N3CCC(O)(c4ccc(Cl)cc4)CC3)cs2)s1 [Example 1940]
> 1000 nM	C#CCN(Cc1ccc(Cl)cc1Cl)C(=O)c1csc(-c2sc(C)nc2-c2ccc(F)cc2)n1 [Example 1941]
> 1000 nM	CCN(C(=O)c1csc(-c2sc(C)nc2-c2ccc(F)cc2)n1)C(Cc1ccccc1)c1ccco1 (stereo not shown) [Example 1942]
> 1000 nM	Cc1nc(-c2ccc(F)cc2)c(-c2nc(C(=O)N3CCN(C(=O)OC(C)(C)C)C[C@H]3CO)cs2)s1 [Example 1943]
> 1000 nM	Cc1nc(-c2ccc(F)cc2)c(-c2nc(C(=O)N3CCN(c4ccc(C(C)(C)C)cc4)CC3)cs2)s1 [Example 1944]
> 1000 nM	Cc1nc(-c2ccc(F)cc2)c(-c2nc(C(=O)N3CCN(Cc4ccc5c(c4)OCO5)CC3)cs2)s1 [Example 1945]
≤ 1000 nM	COc1cc2c(cc1OC)CN(C(=O)c1csc(-c3sc(C)nc3-c3ccc(F)cc3)n1)CC2 [Example 1946]
> 1000 nM	Cc1nc(-c2ccc(F)cc2)c(-c2nc(C(=O)N3CCN(c4ccc(C(F)(F)F)cc4)CC3)cs2)s1 [Example 1947]
> 1000 nM	Cc1nc(-c2ccc(F)cc2)c(-c2nc(C(=O)N3CCN(c4cccc(C(F)(F)F)c4)CC3)cs2)s1 [Example 1948]
> 1000 nM	Cc1nc(-c2ccc(F)cc2)c(-c2nc(C(=O)N3CCN(c4ccc(Cl)c(Cl)c4)CC3)cs2)s1 [Example 1949]
> 1000 nM	Cc1nc(-c2ccc(F)cc2)c(-c2nc(C(=O)N3CCN(c4ccc(C(F)(F)F)cn4)CC3)cs2)s1 [Example 1951]
> 1000 nM	Cc1nc(-c2ccc(F)cc2)c(-c2nc(C(=O)N3CCN(c4ccccc4Cl)CC3)cs2)s1 [Example 1952]
> 1000 nM	COc1ccc(N2CCN(C(=O)c3csc(-c4sc(C)nc4-c4ccc(F)cc4)n3)CC2)cc1OC [Example 1953]
> 1000 nM	Cc1nc(-c2ccc(F)cc2)c(-c2nc(C(=O)N3CCCC(c4ccc(C(F)(F)F)cc4)C3)cs2)s1 (stereo not shown) [Example 1954]
> 1000 nM	Cc1nc(-c2ccc(F)cc2)c(-c2nc(C(=O)Nc3ccccc3)cs2)s1 [Example 1955]
> 1000 nM	Cc1cccc(NC(=O)c2csc(-c3sc(C)nc3-c3ccc(F)cc3)n2)c1 [Example 1956]
> 1000 nM	Cc1ccc(NC(=O)c2csc(-c3sc(C)nc3-c3ccc(F)cc3)n2)cc1 [Example 1957]
> 1000 nM	Cc1nc(-c2ccc(F)cc2)c(-c2nc(C(=O)Nc3ccccc3C)cs2)s1 [Example 1958]
> 1000 nM	Cc1ccc(NC(=O)c2csc(-c3sc(C)nc3-c3ccc(F)cc3)n2)nc1 [Example 1959]
> 1000 nM	Cc1cccc(NC(=O)c2csc(-c3sc(C)nc3-c3ccc(F)cc3)n2)n1 [Example 1960]
> 1000 nM	Cc1ccnc(NC(=O)c2csc(-c3sc(C)nc3-c3ccc(F)cc3)n2)c1 [Example 1961]
> 1000 nM	Cc1nc(-c2ccc(F)cc2)c(-c2nc(C(=O)Nc3ncccc3C)cs2)s1 [Example 1962]

IC50	Structure (SMILES)
> 1000 nM	Cc1nc(-c2ccc(F)cc2)c(-c2nc(C(=O)Nc3ccccc3F)cs2)s1 [Example 1963]
> 1000 nM	Cc1nc(-c2ccc(F)cc2)c(-c2nc(C(=O)Nc3ccc(F)cc3)cs2)s1 [Example 1964]
> 1000 nM	Cc1ccc(C)c(NC(=O)c2csc(-c3sc(C)nc3-c3ccc(F)cc3)n2)c1 [Example 1965]
> 1000 nM	Cc1nc(-c2ccc(F)cc2)c(-c2nc(C(=O)Nc3ccc(C)c(C)c3)cs2)s1 [Example 1966]
> 1000 nM	CCc1ccccc1NC(=O)c1csc(-c2sc(C)nc2-c2ccc(F)cc2)n1 [Example 1967]
> 1000 nM	Cc1ccc(NC(=O)c2csc(-c3sc(C)nc3-c3ccc(F)cc3)n2)c(C)c1 [Example 1970]
> 1000 nM	Cc1cc(C)cc(NC(=O)c2csc(-c3sc(C)nc3-c3ccc(F)cc3)n2)c1 [Example 1971]
> 1000 nM	COc1cccc(NC(=O)c2csc(-c3sc(C)nc3-c3ccc(F)cc3)n2)c1 [Example 1972]
> 1000 nM	COc1ccc(NC(=O)c2csc(-c3sc(C)nc3-c3ccc(F)cc3)n2)cc1 [Example 1973]
≤ 1000 nM	COc1ccccc1NC(=O)c1csc(-c2sc(C)nc2-c2ccc(F)cc2)n1 [Example 1974]
≤ 1000 nM	COc1ccncc1NC(=O)c1csc(-c2sc(C)nc2-c2ccc(F)cc2)n1 [Example 1975]
> 1000 nM	Cc1nc(-c2ccc(F)cc2)c(-c2nc(C(=O)Nc3ccc(C)c(F)c3)cs2)s1 [Example 1976]
> 1000 nM	Cc1nc(-c2ccc(F)cc2)c(-c2nc(C(=O)Nc3cccc(F)c3C)cs2)s1 [Example 1977]
> 1000 nM	Cc1nc(-c2ccc(F)cc2)c(-c2nc(C(=O)Nc3ccc(F)cc3F)cs2)s1 [Example 1979]
> 1000 nM	Cc1nc(-c2ccc(F)cc2)c(-c2nc(C(=O)Nc3ccc4c(c3)CCC4)cs2)s1 [Example 1981]
> 1000 nM	Cc1nc(-c2ccc(F)cc2)c(-c2nc(C(=O)Nc3ccccc3C(C)C)cs2)s1 [Example 1982]
≤ 1000 nM	CC(=O)c1cccc(NC(=O)c2csc(-c3sc(C)nc3-c3ccc(F)cc3)n2)c1 [Example 1983]
> 1000 nM	CC(=O)c1ccc(NC(=O)c2csc(-c3sc(C)nc3-c3ccc(F)cc3)n2)cc1 [Example 1984]
> 1000 nM	CCc1cccc(C)c1NC(=O)c1csc(-c2sc(C)nc2-c2ccc(F)cc2)n1 [Example 1985]
> 1000 nM	Cc1cc(C)c(NC(=O)c2csc(-c3sc(C)nc3-c3ccc(F)cc3)n2)c(C)c1 [Example 1986]
≤ 1000 nM	Cc1nc(-c2ccc(F)cc2)c(-c2nc(C(=O)Nc3ccc4c(c3)OCO4)cs2)s1 [Example 1987]
≤ 1000 nM	COc1ccc(NC(=O)c2csc(-c3sc(C)nc3-c3ccc(F)cc3)n2)c(C)c1 [Example 1988]
> 1000 nM	CCOc1cccc(NC(=O)c2csc(-c3sc(C)nc3-c3ccc(F)cc3)n2)c1 [Example 1989]
> 1000 nM	CCOc1ccccc1NC(=O)c1csc(-c2sc(C)nc2-c2ccc(F)cc2)n1 [Example 1990]
> 1000 nM	CSc1ccccc1NC(=O)c1csc(-c2sc(C)nc2-c2ccc(F)cc2)n1 [Example 1991]
≤ 1000 nM	Cc1nc(-c2ccc(F)cc2)c(-c2nc(C(=O)Nc3cccc(Cl)c3C)cs2)s1 [Example 1992]

IC50	Structure (SMILES)
> 1000 nM	Cc1nc(-c2ccc(F)cc2)c(-c2nc(C(=O)Nc3ccc(C)c(Cl)c3)cs2)s1 [Example 1993]
≤ 1000 nM	Cc1nc(-c2ccc(F)cc2)c(-c2nc(C(=O)Nc3cnc4ccccc4c3)cs2)s1 [Example 1994]
> 1000 nM	Cc1nc(-c2ccc(F)cc2)c(-c2nc(C(=O)Nc3cc(F)c(F)cc3F)cs2)s1 [Example 1995]
> 1000 nM	Cc1nc(-c2ccc(F)cc2)c(-c2nc(C(=O)NC3CCCc4ccccc43)cs2)s1 (stereo not shown) [Example 1996]
> 1000 nM	Cc1nc(-c2ccc(F)cc2)c(-c2nc(C(=O)Nc3ccccc3C(C)(C)C)cs2)s1 [Example 1997]
> 1000 nM	Cc1nc(-c2ccc(F)cc2)c(-c2nc(C(=O)Nc3c(C)cccc3C(C)C)cs2)s1 [Example 1998]
> 1000 nM	Cc1nc(-c2ccc(F)cc2)c(-c2nc(C(=O)Nc3ccc4ncsc4c3)cs2)s1 [Example 1999]
≤ 1000 nM	CC(=O)Nc1ccc(NC(=O)c2csc(-c3sc(C)nc3-c3ccc(F)cc3)n2)cc1 [Example 2000]
≤ 1000 nM	CC(=O)Nc1ccc(NC(=O)c2csc(-c3sc(C)nc3-c3ccc(F)cc3)n2)cn1 [Example 2001]
≤ 1000 nM	Cc1nc(-c2ccc(F)cc2)c(-c2nc(C(=O)Nc3ccc4c(c3)OCCO4)cs2)s1 [Example 2002]
> 1000 nM	COc1ccc(NC(=O)c2csc(-c3sc(C)nc3-c3ccc(F)cc3)n2)cc1OC [Example 2003]
> 1000 nM	Cc1nc(-c2ccc(F)cc2)c(-c2nc(C(=O)Nc3ccccc3-n3cccc3)cs2)s1 [Example 2004]
> 1000 nM	Cc1nc(-c2ccc(F)cc2)c(-c2nc(C(=O)Nc3ccc(C(F)(F)F)cc3)cs2)s1 [Example 2005]
> 1000 nM	Cc1nc(-c2ccc(F)cc2)c(-c2nc(C(=O)Nc3cccc(C(F)(F)F)c3)cs2)s1 [Example 2006]
> 1000 nM	Cc1nc(-c2ccc(F)cc2)c(-c2nc(C(=O)Nc3ccc(Cl)c(Cl)c3)cs2)s1 [Example 2007]
≤ 1000 nM	Cc1nc(-c2ccc(F)cc2)c(-c2nc(C(=O)Nc3c(C)cccc3C(C)(C)C)cs2)s1 [Example 2008]
≤ 1000 nM	Cc1nc(-c2ccc(F)cc2)c(-c2nc(C(=O)Nc3ccc(N(C)C)cc3)cs2)s1 [Example 2009]
≤ 1000 nM	Cc1nc(-c2ccc(F)cc2)c(-c2nc(C(=O)Nc3ccccc3-c3ccccc3)cs2)s1 [Example 2010]
> 1000 nM	Cc1nc(-c2ccc(F)cc2)c(-c2nc(C(=O)Nc3ccc(OC(F)(F)F)cc3)cs2)s1 [Example 2011]
> 1000 nM	Cc1nc(-c2ccc(F)cc2)c(-c2nc(C(=O)Nc3c(C(C)C)cccc3C(C)C)cs2)s1 [Example 2012]
> 1000 nM	Cc1nc(-c2ccc(F)cc2)c(-c2nc(C(=O)Nc3ccc(F)cc3C(F)(F)F)cs2)s1 [Example 2013]
> 1000 nM	Cc1nc(-c2ccc(F)cc2)c(-c2nc(C(=O)Nc3cc(C(F)(F)F)ccc3F)cs2)s1 [Example 2014]
> 1000 nM	Cc1nc(-c2ccc(F)cc2)c(-c2nc(C(=O)Nc3ccc(F)c(C(F)(F)F)c3)cs2)s1 [Example 2015]
> 1000 nM	CCOc1ccc(OCC)c(NC(=O)c2csc(-c3sc(C)nc3-c3ccc(F)cc3)n2)c1 [Example 2016]
